Key:
primary human T-cells [1] = experiment: IL2 secretion measurements in CD3-stimulated T-cells; assay type: cell-based; conditions: CD3 condition; for Emax IL2 (% activation): 24 hours, 20 μM reference compound A1 = 100%; for EC50: IL2 secretion after 24 hours, read-out: Tcell IL2 CD3 EC50
Procedure: As readouts for T-cell activation, 1L2 secretion after 24 hours and proliferation after 5 days was measured. Increases in 1L2 secretion and proliferation upon compound treatment were assessed as the % of the maximum of reference compound A1. WO 2016/139181 discloses reference compound A1 as example 70. As a counter screen and to make sure that no unwanted TCR-independent activation was triggered, PBS conditions were run for all compounds.
Expanded primary human T-cells were thawed and cultured in RPMI 1640 (Gibco, #61870-010)+5% human serum (HS, Sigma, #H3667)+1 mM Sodium Pyruvate (Gibco, #11360-039)+50 μM 2-mercaptoethanol (Gibco, #31350-010) and 1× Pen-Strep (Life Technologies, #15140122) medium at density of 2 Mio/ml for 3 hours in 5% CO2, 37° C. and 95% humidity. For coating of plates, […] or PBS++ with CD3 antibody (concentration depending on donor and determined by CD3 titrations) was added 100 μl/well to Poly-D Lysine coated 96-well plates. Plates were sealed and incubated at room temperature for 3 hours on a table-top rocking platform. After incubation, plates were washed once with PBS−− and filled with 40 μl/well culture medium only. Compounds were then added (see next section) to medium only plates. After 3 hours of culturing the T-cells, cells were filtered through a cell strainer (Miltenyi Biotech, #130-041-407), counted again and concentration was adjusted to 1.25 Mio/ml.
Cells were then seeded 80 μl/well to the 40 μl/well including dispensed compounds according to plate layout. By adding cells, compounds were further diluted 1:3, and resulting in 100 k cells/120 μl/well. After 24 hours 40 μl of supernatant was collected carefully from the top while not disturbing the cells and transferred into a round bottom 96 well plate. Collected and frozen supernatant was used for detection of IL2 using the IL-2 Human ProQuantum Immunoassay Kit (Invitrogen) or using the Human IL-2 ELISA Kit (Thermo Fisher).
(§1) Compounds were added in a 5 or 6 pt dose response with the Tecan D300e Digital Dispenser, all conditions 3 times more concentrated than the end-concentration, since cells are added afterwards (80 μl cells to 40 μl prepared medium with treatment). The DR was starting at 20 μM or 10 μM final top concentration and a dilution factor of 3.333. The positive control was the reference compound A1 that was added in a dose response as well, additionally to 3 wells of only 20 μM representing the positive stimulator control. All wells were normalized with DMSO to a final concentration of 0.6% (0.2% end-concentration).
The immunoassay is done following the manufacturer's manual (Invitrogen, #A35603). Additional information: For the immunoassay, MicroAmp™ EnduraPlate™ Optical 384-Well plates are used. Frozen supernatant is thawed and centrifuged for 5 minutes at 1000×g, both steps at 4° C. After centrifugation, required sample amount is taken from the top, and in a separate LightCycler V-bottom plate (working plate) diluted with assay dilution buffer, dilution factor depending on the PBS or CD3 condition but at least 1:3. IL-2 standard and blanks are prepared in the same V-bottom plate, standard with a range of […] (extended version). After preparation, 5 μl of sample dilutions or standard/blanks are transferred to the optical 384-well plate (assay plate) and the 10 μl reaction protocol is being followed. For measurement, the QuantStudio 12K Flex system is used. Raw data is extracted and IL-2 concentrations are calculated with the Thermo Fisher online app (apps.thermofisher.com/apps/proquantum).
ELISA is done following the manufacturer's manual (Thermo Fisher Scientific, #88-7025-88). Additional information: For the ELISA Nunc MaxiSorp 96 well plates are used. Frozen supernatant is thawed and centrifuged for 5 minutes at 1000×g, both steps at 4° C. […]

primary human T-cells [2] = experiment: T-cell proliferation assay (CellTiter-Glo); assay type: cell-based; conditions: CD3 condition; for EC50: proliferation after 5 days, CellTiter-Glo, read-out: Tcell Proliferation CD3 EC50; for Emax proliferation (% activation): 5 days, 20 μM reference compound A1 = 100%
Procedure: For coating of plates, PBS++ only or PBS++ with CD3 antibody (concentration depending on donor and determined by CD3 titrations) is added 100 μl/well to Poly-D Lysine coated 96-well plates. Plates are sealed and incubated at room temperature for 3 hours on a table-top rocking platform. After incubation, plates are washed once with PBS−− and filled with 40 μl/well culture medium only. Compounds are then added (see next section) to medium only plates. After 3 hours of culturing the T-cells, cells are filtered through a cell strainer (Miltenyi Biotech, #130-041-407), counted again and concentration is adjusted to 1.25 Mio/ml.
Cells are then seeded 80 μl/well to the 40 μl/well including dispensed compounds according to plate layout. By adding cells, compounds are further diluted 1:3, and resulting in 100 k cells/120 μl/well. After 48 hours 40 μl of supernatant is collected carefully from the top while not disturbing the cells. Cells are assessed for proliferation 5 days later by measuring […] using CellTiterGlo (Promega).
as §1, with “The DR was starting at 20 μM or 10 μM final top concentration and a dilution factor of 3.333.” left out
After 5 days, for detection of ATP which is directly proportional to the number of cells present per well, the CellTiter-Glo® 2.0 Reagent is used. After visual control for toxicity or precipitations of the tested compounds, the plates are equilibrated to room temperature for 45 minutes. CellTiter-Glo® 2.0 Reagent is equilibrated to room temperature as well. After equilibration, an equal amount of CellTiter-Glo reagent is added to the cells (80 μl/well) with an electronic multichannel pipette. Plates are placed on a rocking platform for 15 minutes at room temperature. After incubation, the bottom of the plates is sealed with backing tape. Luminescence is measured with PHERAstar FSX (interval time 0.5 sec, gain 3000, focal height 15 mm) and exported as CSV file for analysis in Genedata screener.
Calculations and Data Reporting CD3 and PBS plates were analysed separately in Genedata Screener using Roche Normalization PCT_POS_CTRL with DMSO set as Neutral Control and 20 μM of the reference compound A1 set as Stimulator Control/100%.
For CD3 conditions EC50 and Emax of the fitted sigmoidal curve were reported. If no curve could be fitted, the EC50 was reported as blank field and the Emax was based on individual data points. […] Compounds which activate unstimulated cells (see IL2 measurements) or compounds which negatively affected viability were flagged.

[3] = target: DGKalpha (hDGKalpha(1-735)-N-His) (Homo sapiens (Human), UniProt P23743); experiment: In vitro DGK inhibition assay, ADP-Glo (in house), DGKalpha; assay type: biochemical; conditions: DLG liposomes, 25 μM ATP, 4 nM enzyme, 1 hour reaction
Sequence of DGKalpha (hDGKalpha(1-735)-N-His) (P23743 whole entry): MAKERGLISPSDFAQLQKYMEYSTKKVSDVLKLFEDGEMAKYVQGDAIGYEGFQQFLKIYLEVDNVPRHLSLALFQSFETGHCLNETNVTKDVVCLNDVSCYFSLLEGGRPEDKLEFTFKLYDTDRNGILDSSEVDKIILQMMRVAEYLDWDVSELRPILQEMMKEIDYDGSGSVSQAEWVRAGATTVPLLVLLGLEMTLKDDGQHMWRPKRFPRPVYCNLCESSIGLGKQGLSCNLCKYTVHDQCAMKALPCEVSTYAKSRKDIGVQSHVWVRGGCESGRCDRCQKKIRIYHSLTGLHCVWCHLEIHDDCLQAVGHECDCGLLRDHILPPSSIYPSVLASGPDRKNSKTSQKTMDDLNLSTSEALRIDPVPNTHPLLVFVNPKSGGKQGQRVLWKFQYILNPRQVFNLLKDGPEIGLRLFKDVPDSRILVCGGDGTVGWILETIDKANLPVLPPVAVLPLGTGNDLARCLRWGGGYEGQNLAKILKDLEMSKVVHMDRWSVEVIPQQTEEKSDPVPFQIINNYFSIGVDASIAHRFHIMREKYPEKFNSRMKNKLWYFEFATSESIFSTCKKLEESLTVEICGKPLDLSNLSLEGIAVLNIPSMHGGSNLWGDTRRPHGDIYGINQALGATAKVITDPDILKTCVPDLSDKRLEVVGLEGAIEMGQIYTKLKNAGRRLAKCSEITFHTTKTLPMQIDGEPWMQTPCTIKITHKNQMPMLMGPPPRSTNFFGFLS
Procedure: (§2) DGK α and ζ kinases use ATP to phosphorylate the substrate 1,2-dilauroyl-sn-glycerol (DLG, incorporated in the liposomes). ATP is converted to ADP as a result of this enzymatic reaction.
(§3) After the kinase reaction, an ATP-depletion reagent is added to terminate the kinase reaction and deplete any remaining ATP, leaving only ADP. Second, a detection reagent is added to simultaneously convert ADP to ATP and allow the newly synthesized ATP to be converted to light using a coupled luciferase/luciferin reaction.
(§4) Purification of both enzymes was performed as previously described by Takahashi et al., PeerJ, 2018 (Takahashi, D.; Sakane, F. Expression and purification of human diacylglycerol kinase alpha from baculovirus-infected insect cells for structural studies. PeerJ 2018, 6, No. e5449).
(§5) A concentrated liposome solution was prepared in assay buffer without DTT and BSA: 2 mM of DLG in 21 mM of total liposome (2 mM DLG/8 mM PS/11 mM PC). The reaction mixtures contain the assay buffer with a final DLG concentration of 125 uM ATP concentrations of 25 μM (for DGKA assay) or 50 μM (for DGKZ assay). The reactions were started by addition of DGK α and ζ kinases at 4 nM and 2 nM final concentrations, respectively. After 1 hour reaction, the amount of ADP formed was detected with the ADP-Glo kinase assay (Promega) according to the manufacturer instructions. Compounds were added in 11-points dose response, starting at […], 1:3 dilutions, with a final DMSO concentration of 2%. The multidrop combi was used as a liquid handler and luminescence was read with 0.5 s by the envision reader (PE).

[4] = target: DGKzeta (hDGKzeta(1-928)-N-His) (Homo sapiens (Human), UniProt Q13574); experiment: In vitro DGK inhibition assay, ADP-Glo (in house), DGKzeta; assay type: biochemical; conditions: DLG liposomes, 50 μM ATP, 2 nM enzyme, 1 hour reaction
Sequence of DGKzeta (hDGKzeta(1-928)-N-His) (Q13574 whole entry): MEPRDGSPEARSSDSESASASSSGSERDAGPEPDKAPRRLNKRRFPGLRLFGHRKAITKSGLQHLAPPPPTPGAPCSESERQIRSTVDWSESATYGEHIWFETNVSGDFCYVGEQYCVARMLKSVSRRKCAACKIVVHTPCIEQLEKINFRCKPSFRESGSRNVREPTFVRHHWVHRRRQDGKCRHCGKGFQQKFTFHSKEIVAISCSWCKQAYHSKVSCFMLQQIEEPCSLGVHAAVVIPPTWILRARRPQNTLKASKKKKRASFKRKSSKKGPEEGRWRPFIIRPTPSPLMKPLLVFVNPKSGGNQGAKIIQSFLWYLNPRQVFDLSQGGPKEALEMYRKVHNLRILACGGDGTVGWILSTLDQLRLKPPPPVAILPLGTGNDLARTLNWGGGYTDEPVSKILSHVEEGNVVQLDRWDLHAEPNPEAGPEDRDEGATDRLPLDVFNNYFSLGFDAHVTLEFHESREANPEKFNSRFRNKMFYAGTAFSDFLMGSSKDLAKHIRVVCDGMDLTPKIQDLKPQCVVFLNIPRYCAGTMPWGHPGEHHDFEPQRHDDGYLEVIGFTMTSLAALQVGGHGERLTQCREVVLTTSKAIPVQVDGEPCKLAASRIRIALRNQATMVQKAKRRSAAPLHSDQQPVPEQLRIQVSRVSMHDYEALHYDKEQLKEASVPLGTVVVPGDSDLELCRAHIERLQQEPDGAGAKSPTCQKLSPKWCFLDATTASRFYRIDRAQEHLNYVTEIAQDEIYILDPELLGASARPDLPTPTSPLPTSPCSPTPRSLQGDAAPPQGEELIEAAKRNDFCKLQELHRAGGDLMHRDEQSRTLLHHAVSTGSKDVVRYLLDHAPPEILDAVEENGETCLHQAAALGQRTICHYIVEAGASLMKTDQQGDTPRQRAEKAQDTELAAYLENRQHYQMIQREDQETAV
Procedure: as §2, §3, §4, §5

| Compound | Emax IL2 (% activation) (primary human T-cells [1]) | EC50 (primary human T-cells [1]) [nM] | EC50 (primary human T-cells [2]) [nM] | IC50 [3] [nM] | Emax proliferation (% activation) (primary human T-cells [2]) | IC50 [4] [nM] | EC50 (primary human T-cells [1]; Homo sapiens, T-cell) [nM] | EC50 (primary human T-cells [2]; Homo sapiens, T-cell, 120 h) [nM] |
| --- | --- | --- | --- | --- | --- | --- | --- | --- |
| (3R)-3-amino-5-(4-chlorobenzyl)-8-fluoro-1,1-diketo-7-[5-(trifluoromethoxy)-3-pyridyl]-2,3-dihydro-1λ6,5-benzothiazepin-4-one [Example 5] | 100 | 604 | 319 | > 62500 | – | – | – | – |
| CC(C)(C)c1cc(-c2cc3c(cc2F)S(=O)(=O)C[C@@H](N)C(=O)N3Cc2ccc(-c3noc(C(F)(F)F)n3)cc2)cnn1 [Example 35] | 480 | 3130 | 1040 | 19900 | 132 | 17200 | – | – |
| N[C@H]1CS(=O)(=O)c2cc(F)c(-c3cncc(C(F)(F)F)c3)cc2N(Cc2ccc(-c3noc(C(F)(F)F)n3)cc2)C1=O [Example 24, (3R)-3-amino-8-fluoro-1,1-diketo-5-[4-[5-(trifluoromethyl)-1,2,4-oxadiazol-3-yl]benzyl]-7-[5-(trifluoromethyl)-3-pyridyl]-2,3-dihydro-1λ6,5-benzothiazepin-4-one] | 235 | – | – | 55200 | 141 | 23700 | 1940 | 699 |
| COc1ccc(-c2ccc(CN3C(=O)[C@@H](N)CS(=O)(=O)c4cc(F)c(-c5cncc(C(C)(C)C)c5)cc43)cc2)cc1 [Example 30, (3R)-3-amino-7-(5-tert-butyl-3-pyridyl)-8-fluoro-5-[[4-(4-methoxyphenyl)phenyl]methyl]-1,1-dioxo-2,3-dihydro-1λ6,5-benzothiazepin-4-one] | 100 | – | – | 29100 | 177 | 2600 | 327 | 333 |
| CC(C)(C)c1cc(-c2cc3c(cc2F)S(=O)(=O)C[C@H](N)C(=O)N3Cc2ccc(Cl)cc2)ccn1 [Example 3, (3R)-3-amino-7-(2-tert-butyl-4-pyridyl)-5-[(4-chlorophenyl)methyl]-8-fluoro-1,1-dioxo-2,3-dihydro-1λ6,5-benzothiazepin-4-one] | 56 | – | – | – | – | – | 829 | 1510 |
| COc1cncc(-c2cc3c(cc2F)S(=O)(=O)C[C@H](N)C(=O)N3Cc2ccc(Cl)cc2)c1 [Example 26, (3R)-3-amino-5-[(4-chlorophenyl)methyl]-8-fluoro-7-(5-methoxy-3-pyridyl)-1,1-dioxo-2,3-dihydro-1λ6,5-benzothiazepin-4-one] | 29 | – | – | – | – | – | > 10000 | 416 |
| CC(C)(C)c1cncc(-c2cc3c(cc2F)S(=O)(=O)C[C@H](N)C(=O)N3Cc2ccc(-c3noc(C(F)(F)F)n3)cc2)c1 [Example 22, (3R)-3-amino-7-(5-tert-butyl-3-pyridyl)-8-fluoro-1,1-diketo-5-[4-[5-(trifluoromethyl)-1,2,4-oxadiazol-3-yl]benzyl]-2,3-dihydro-1λ6,5-benzothiazepin-4-one] | 458 | – | – | – | 228 | – | 811 | 92 |
| N[C@H]1CS(=O)(=O)c2cc(F)c(-c3nccc(C(F)(F)F)n3)cc2N(Cc2ccc(Cl)cc2)C1=O [Example 10, (3R)-3-amino-5-[(4-chlorophenyl)methyl]-8-fluoro-1,1-dioxo-7-[4-(trifluoromethyl)pyrimidin-2-yl]-2,3-dihydro-1λ6,5-benzothiazepin-4-one] | 44 | – | – | – | – | – | 1820 | 3570 |

From patent US20250236617A1, “BICYCLIC TETRAHYDROTHIAZEPINE DERIVATIVES” (Hoffmann-La Roche Inc., priority 2022, published 2025)
